Test results published in ChEMBL document CHEMBL4387711, “Discovery of niclosamide and its O-alkylamino-tethered derivatives as potent antibacterial agents against carbapenemase-producing and/or colistin resistant Enterobacteriaceae isolates” (2019).
Converted amounts (≈) assume the structure as drawn. The source made the active and inactive calls. The calls are words filed in the database; no cut-off is given here.

Experiments:
Klebsiella pneumoniae [1] = test: Antibacterial activity against carbapenemase/Klebsiella pneumoniae CECT-997 by broth microdilution method; type: functional
Klebsiella pneumoniae [2] = test: Antibacterial activity against Klebsiella pneumoniae CECT-997 assessed as inhibition of growth at 50 uM after 18 hrs; type: functional, organism-based
Klebsiella pneumoniae [3] = test: Antibacterial activity against colistin-susceptible VIM1/carbapenemase-producing Klebsiella pneumoniae 07 assessed as inhibition of growth at 50 uM after 18 hrs; type: functional, organism-based
Klebsiella pneumoniae [4] = test: Antibacterial activity against colistin-resistant VIM1/DHAI/carbapenemase-producing Klebsiella pneumoniae 21 assessed as inhibition of growth at 50 uM after 18 hrs; type: functional, organism-based
Klebsiella pneumoniae [5] = test: Antibacterial activity against colistin-susceptible OXA-48/CTX-M-15/carbapenemase-producing Klebsiella pneumoniae 28 assessed as inhibition of growth at 50 uM after 18 hrs; type: functional, organism-based
Klebsiella pneumoniae [6] = test: Antibacterial activity against colistin-resistant OXA-48/CTX-M-15/carbapenemase-producing Klebsiella pneumoniae 29 assessed as inhibition of growth at 50 uM after 18 hrs; type: functional, organism-based
Klebsiella pneumoniae [7] = test: Antibacterial activity against colistin-susceptible OXA-48/CTX-M-15/carbapenemase-producing Klebsiella pneumoniae 28 by broth microdilution method; type: functional
Klebsiella pneumoniae [8] = test: Antibacterial activity against colistin-susceptible NDM-1/carbapenemase-producing Klebsiella pneumoniae assessed as inhibition of growth at 50 uM after 18 hrs; type: functional, organism-based
Klebsiella pneumoniae [9] = test: Antibacterial activity against colistin-susceptible NDM-1/carbapenemase-producing Klebsiella pneumoniae by broth microdilution method; type: functional
Escherichia coli [10] = test: Antibacterial activity against colistin-susceptible NDM1/KPC-producing Escherichia coli assessed as inhibition of growth at 50 uM after 18 hrs; type: functional, organism-based
Escherichia coli [11] = test: Antibacterial activity against colistin-susceptible NDM1/KPC-producing Escherichia coli by broth microdilution method; type: functional
Klebsiella aerogenes [12] = test: Antibacterial activity against colistin-resistant Enterobacter aerogenes 3 assessed as inhibition of growth at 50 uM after 18 hrs; type: functional, organism-based
Enterobacter cloacae [13] = test: Antibacterial activity against colistin-resistant Enterobacter cloacae 32 assessed as inhibition of growth at 50 uM after 18 hrs; type: functional, organism-based
Klebsiella aerogenes [14] = test: Antibacterial activity against colistin-resistant Enterobacter aerogenes 53 assessed as inhibition of growth at 50 uM after 18 hrs; type: functional, organism-based
Enterobacter cloacae [15] = test: Antibacterial activity against colistin-resistant Enterobacter cloacae 142 assessed as inhibition of growth at 50 uM after 18 hrs; type: functional, organism-based
Enterobacter cloacae [16] = test: Antibacterial activity against colistin-resistant Enterobacter cloacae 190 assessed as inhibition of growth at 50 uM after 18 hrs; type: functional, organism-based
Enterobacter cloacae [17] = test: Antibacterial activity against colistin-resistant Enterobacter cloacae 263 assessed as inhibition of growth at 50 uM after 18 hrs; type: functional, organism-based
Enterobacter cloacae [18] = test: Antibacterial activity against colistin-resistant Enterobacter cloacae 272 assessed as inhibition of growth at 50 uM after 18 hrs; type: functional, organism-based
Enterobacter cloacae [19] = test: Antibacterial activity against colistin-resistant Enterobacter cloacae 280 assessed as inhibition of growth at 50 uM after 18 hrs; type: functional, organism-based
Enterobacter cloacae [20] = test: Antibacterial activity against colistin-resistant Enterobacter cloacae 280 by broth microdilution method; type: functional
Enterobacter cloacae [21] = test: Antibacterial activity against colistin-resistant Enterobacter cloacae 297 assessed as inhibition of growth at 50 uM after 18 hrs; type: functional, organism-based
Enterobacter cloacae [22] = test: Antibacterial activity against colistin-resistant Enterobacter cloacae 297 by broth microdilution method; type: functional
Escherichia coli [23] = test: Synergistic antibacterial activity against colistin-susceptible NDM1/KPC-producing Escherichia coli in presence of colistin by checkerboard assay; type: functional
Klebsiella pneumoniae [24] = test: Synergistic antibacterial activity against colistin-susceptible NDM-1/carbapenemase-producing Klebsiella pneumoniae in presence of colistin by checkerboard assay; type: functional
Escherichia coli [25] = test: Bactericidal activity against colistin-susceptible NDM-1/KPC-producing Escherichia coli assessed as reduction in bacterial count at MIC measured after 2 hrs by time kill assay; type: functional, organism-based
Escherichia coli [26] = test: Bactericidal activity against colistin-susceptible NDM-1/KPC-producing Escherichia coli assessed as reduction in bacterial count at MIC measured after 2 hrs in presence of colistin by time kill assay; type: functional, organism-based
Klebsiella pneumoniae [27] = test: Synergistic bactericidal activity against OXA-48/CTX-M-15/carbapenemase-producing Klebsiella pneumoniae 28 assessed as reduction in bacterial count at MIC measured after 8 hrs in presence of colistin by time kill assay; type: functional, organism-based
Klebsiella pneumoniae [28] = test: Bactericidal activity against OXA-48/CTX-M-15/carbapenemase-producing Klebsiella pneumoniae 28 assessed as reduction in bacterial count at MIC measured from 4 to 8 hrs in presence of colistin by time kill assay; type: functional, organism-based

NCCCCOc1ccc(Cl)cc1C(=O)Nc1ccc([N+](=O)[O-])cc1Cl
MIC (Klebsiella pneumoniae [1]): 15 µg/mL (≈ 37.7 µM) | growth inhibition (GI) (Klebsiella pneumoniae [2]): Active | growth inhibition (GI) (Klebsiella pneumoniae [3]): inactive | growth inhibition (GI) (Klebsiella pneumoniae [4]): inactive | growth inhibition (GI) (Klebsiella pneumoniae [5]): Active | growth inhibition (GI) (Klebsiella pneumoniae [6]): inactive | MIC (Klebsiella pneumoniae [7]): 15 µg/mL (≈ 37.7 µM) | growth inhibition (GI) (Klebsiella pneumoniae [8]): Active | MIC (Klebsiella pneumoniae [9]): > 15 µg/mL | growth inhibition (GI) (Escherichia coli [10]): Active | MIC (Escherichia coli [11]): 15 µg/mL (≈ 37.7 µM) | growth inhibition (GI) (Klebsiella aerogenes [12]): inactive | growth inhibition (GI) (Enterobacter cloacae [13]): inactive | growth inhibition (GI) (Klebsiella aerogenes [14]): inactive | growth inhibition (GI) (Enterobacter cloacae [15]): inactive | growth inhibition (GI) (Enterobacter cloacae [16]): inactive | growth inhibition (GI) (Enterobacter cloacae [17]): inactive | growth inhibition (GI) (Enterobacter cloacae [18]): inactive | growth inhibition (GI) (Enterobacter cloacae [19]): Active | MIC (Enterobacter cloacae [20]): > 15 µg/mL | growth inhibition (GI) (Enterobacter cloacae [21]): Active | MIC (Enterobacter cloacae [22]): > 15 µg/mL | fractional inhibitory concentration index (FICI) (Escherichia coli [23]): 0.25 | fractional inhibitory concentration index (FICI) (Klebsiella pneumoniae [24]): 0.5 | Activity (Escherichia coli [25]): Active | Activity (Escherichia coli [26]): Active | Activity (Klebsiella pneumoniae [27]): Active | Activity (Klebsiella pneumoniae [28]): Active
